Measured values as given in patent publication US10899738B2 (THE REGENTS OF THE UNIVERSITY OF MICHIGAN, priority 2016, dated 2021).
pIC50: −log10 of the molar value.

Molecular target: menin protein (Homo sapiens (Human), UniProt O00255)
Experiment: biochemical
Format: binding
Conditions: FP competitive binding, menin protein 4 nM, FAM-MM2 probe 2 nM; for pIC50: read-out: Menin Binding Affinity IC50
In short: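 Test compounds displaced FAM-MM2 (2 nM) from 4 nM menin after 30 min equilibration at room temperature in PBS buffer containing bovine γ-globulin, 4% DMSO and Triton X-100. Binding was followed by fluorescence polarization. Competition curves were fitted by nonlinear regression to give IC50 and Ki.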

Sequence of menin protein (O00255 whole entry): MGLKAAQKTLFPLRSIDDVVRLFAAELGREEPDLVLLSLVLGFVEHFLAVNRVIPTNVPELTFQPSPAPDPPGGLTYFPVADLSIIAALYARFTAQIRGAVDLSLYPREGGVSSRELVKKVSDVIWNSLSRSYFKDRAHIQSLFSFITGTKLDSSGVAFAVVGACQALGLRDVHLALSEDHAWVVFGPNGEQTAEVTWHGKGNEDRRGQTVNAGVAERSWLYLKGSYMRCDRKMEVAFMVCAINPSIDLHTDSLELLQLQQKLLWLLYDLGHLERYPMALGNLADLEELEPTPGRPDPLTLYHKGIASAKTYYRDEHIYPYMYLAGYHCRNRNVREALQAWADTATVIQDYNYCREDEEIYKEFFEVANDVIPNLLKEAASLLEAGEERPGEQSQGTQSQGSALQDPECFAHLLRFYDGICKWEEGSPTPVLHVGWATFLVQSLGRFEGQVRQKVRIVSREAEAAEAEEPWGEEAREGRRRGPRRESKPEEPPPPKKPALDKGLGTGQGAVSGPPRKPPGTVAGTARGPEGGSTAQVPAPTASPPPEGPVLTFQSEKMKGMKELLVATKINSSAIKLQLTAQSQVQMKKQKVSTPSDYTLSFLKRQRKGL

Row | SMILES | pIC50 | Menin Binding Affinity IC50 (μM)
1 | C[C@H](NC(=O)O[C@H]1CCC[C@@H]1[C@](C#N)(c1ccccc1)C1CCN(CC2CN(c3ccc(S(=O)(=O)c4ccncc4)cc3)C2)CC1)c1ccccc1 [compound 217, (1S,2R)-2-((S)-cyano(phenyl)(1-((1-(4-(pyridin-4-ylsulfonyl)phenyl)azetidin-3-yl)methyl)piperidin-4-yl)methyl)cyclopentyl ((S)-1-phenylethyl)carbamate] | 4.94 | –
2 | C[C@H](NC(=O)O[C@@H]1CCC[C@H]1[C@@](C#N)(c1ccccc1)C1CCN(CC2CN(c3ccc(S(=O)(=O)c4ccncc4)cc3)C2)CC1)c1ccccc1 [compound 218, (1R,2S)-2-((R)-cyano(phenyl)(1-((1-(4-(pyridin-4-ylsulfonyl)phenyl)azetidin-3-yl)methyl)piperidin-4-yl)methyl)cyclopentyl ((S)-1-phenylethyl)carbamate] | – | No inhibition
3 | CC(C)CC1(C2CCN(CCCOc3ccc(C#N)cc3)CC2)NCCc2ccccc21 (stereo not shown) [compound 242, 4-(3-(4-(1-isobutyl-1,2,3,4-tetrahydroisoquinolin-1-yl)piperidin-1-yl)propoxy)benzontrile] | 5.68 | –
4 | N#Cc1ccc(OCCCN2CCC(C3(Cc4ccccc4)NCCc4ccccc43)CC2)cc1 (stereo not shown) [compound 243, 4-(3-(4-(1-benzyl-1,2,3,4-tetrahydroisoquinolin-1-yl)piperidin-1-yl)propoxy)benzonitrile] | 5.38 | –
5 | N#Cc1ccc(OCCCN2CCC(C3(C4CCc5ccccc54)NCCc4ccccc43)CC2)cc1 (stereo not shown) [compound 244, 4-(3-(4-(1-(2,3-dihydro-1H-inden-1-yl)-1,2,3,4-tetrahydroisoquinolin-1-yl)piperidin-1-yl)propoxy)benzonitrile] | 5.64 | –
6 | CCCC(C)C1(C2CCN(CCCOc3ccc(C#N)cc3)CC2)NCCc2ccccc21 (stereo not shown) [compound 245, 4-(3-(4-(1-(pentan-2-yl)-1,2,3,4-tetrahydroisoquinolin-1-yl)piperidin-1-yl)propoxy)benzonitrile] | 5.48 | –
7 | N#Cc1ccc(OCCCN2CCC(C3(c4ccccc4)NCCc4ccccc43)CC2)cc1 (stereo not shown) [compound 246, 4-(3-(4-(1-phenyl-1,2,3,4-tetrahydroisoquinolin-1-yl)piperidin-1-yl)propoxy)benzonitrile] | 4.45 | –
8 | N#Cc1ccc(OCCCN2CCC(C3(C4CCC4)NCCc4ccccc43)CC2)cc1 (stereo not shown) [compound 247, 4-(3-(4-(1-cyclobutyl-1,2,3,4-tetrahydroisoquinolin-1-yl)piperidin-1-yl)propoxy)benzonitrile] | 5.96 | –
9 | CCS(=O)(=O)c1ccc(N2CC(CN3CCC(C4(CC(C)(C)C)NCCc5ccccc54)CC3)C2)cc1 (stereo not shown) [compound 248, 1-(1-((1-(4-(ethylsulfonyl)phenyl)azetidin-3-yl)methyl)piperidin-4-yl)-1-neopentyl-1,2,3,4-tetrahydroisoquinoline] | 6.10 | –
10 | CCC(CC)C1(C2CCN(CCCOc3ccc(C#N)cc3)CC2)NCCc2ccccc21 (stereo not shown) [compound 249, 4-(3-(4-(1-(pentan-3-yl)-1,2,3,4-tetrahydroisoquinolin-1-yl)piperidin-1-yl)propoxy)benzonitrile] | 5.72 | –
11 | CC(C)CCC1(C2CCN(CCCOc3ccc(C#N)cc3)CC2)NCCc2ccccc21 (stereo not shown) [compound 250, 4-(3-(4-(1-isopentyl-1,2,3,4-tetrahydroisoquinolin-1-yl)piperidin-1-yl)propoxy)benzonitrile] | 5.33 | –
12 | N#Cc1ccc(OCCCN2CCC(C3(CC4CCCCC4)NCCc4ccccc43)CC2)cc1 (stereo not shown) [compound 251, 4-(3-(4-(1-(cyclohexylmethyl)-1,2,3,4-tetrahydroisoquinolin-1-yl)piperidin-1-yl)propoxy)benzonitrile] | 5.15 | –
13 | CCC(CC)CC1(C2CCN(CCCOc3ccc(C#N)cc3)CC2)NCCc2ccccc21 (stereo not shown) [compound 252, 4-(3-(4-(1-(2-ethylbutyl)-1,2,3,4-tetrahydroisoquinolin-1-yl)piperidin-1-yl)propoxy)benzonitrile] | 5.92 | –
14 | C=CCC1(C2CCN(CCCOc3ccc(C#N)cc3)CC2)NCCc2ccccc21 (stereo not shown) [compound 293, 4-(3-(4-(1-allyl-1,2,3,4-tetrahydroisoquinolin-1-yl)piperidin-1-yl)propoxy)benzonitrile] | 5.55 | –
15 | N#Cc1ccc(OCCCN2CCC(C(C#N)(c3ccccc3)C3CCCCC3)CC2)cc1 (stereo not shown) [compound 294, 4-(3-(4-(cyano(cyclohexyl)(phenyl)methyl)piperidin-1-yl)propoxy)benzonitrile] | 4.95 | –
16 | CS(=O)(=O)c1ccc(OCCCN2CCC(C3(C4CCCCC4)NCCc4ccccc43)CC2)cc1 (stereo not shown) [compound 295, 1-cyclohexyl-1-(1-(3-(4-(methylsulfonyl)phenoxy)propyl)piperidin-4-yl)-1,2,3,4-tetrahydroisoquinoline] | 5.72 | –
17 | CS(=O)(=O)c1ccc(OCCCN2CCC(C3(C4CCCC4)NCCc4ccccc43)CC2)cc1 (stereo not shown) [compound 296, 1-cyclopentyl-1-(1-(3-(4-(methylsulfonyl)phenoxy)propyl)piperidin-4-yl)-1,2,3,4-tetrahydroisoquinoline] | 6.40 | –
18 | CC(=O)N1CCCCC1C1(C2CCN(CCCOc3ccc(C#N)cc3)CC2)CN(C)Cc2ccccc21 (stereo not shown) [compound 297, 4-(3-(4-(4-(1-acetylpiperidin-2-yl)-2-methyl-1,2,3,4-tetrahydroisoquinolin-4-yl)piperidin-1-yl)propoxy)benzonitrile] | 5.68 | –
19 | N#Cc1ccc(OCCCN2CCC(C3(C4CCCCC4)NCCc4ccccc43)CC2)cc1 (stereo not shown) [compound 298, 4-(3-(4-(1-cyclohexyl-1,2,3,4-tetrahydroisoquinolin-1-yl)piperidin-1-yl)propoxy)benzonitrile] | 6.52 | –
20 | CC(C)C(=O)N1CCCCC1C1(C2CCN(CCCOc3ccc(C#N)cc3)CC2)CN(C)Cc2ccccc21 (stereo not shown) [compound 299, 4-(3-(4-(4-(1-isobutyrylpiperidin-2-yl)-2-methyl-1,2,3,4-tetrahydroisoquinolin-4-yl)piperidin-1-yl)propoxy)benzonitrile] | 4.77 | –
21 | CC(C)C(=O)N1CCCCC1C1(C2CCN(CCCOc3ccc(C#N)cc3)CC2)CN(C)Cc2ccccc21 (stereo not shown) [compound 300, 4-(3-(4-(4-(1-isobutyrylpiperidin-2-yl)-2-methyl-1,2,3,4-tetrahydroisoquinolin-4-yl)piperidin-1-yl)propoxy)benzonitrile] | 4.25 | –
22 | CCC(CC)C(=O)N1CCCCC1C1(C2CCN(CCCOc3ccc(C#N)cc3)CC2)CN(C)Cc2ccccc21 (stereo not shown) [compound 301, 4-(3-(4-(4-(1-(2-ethylbutanoyl)piperidin-2-yl)-2-methyl-1,2,3,4-tetrahydroisoquinolin-4-yl)piperidin-1-yl)propoxy)benzonitrile] | 4.46 | –
23 | CCCC(=O)N1CCCCC1C1(C2CCN(CCCOc3ccc(C#N)cc3)CC2)CN(C)Cc2ccccc21 (stereo not shown) [compound 302, 4-(3-(4-(4-(1-butyrylpiperidin-2-yl)-2-methyl-1,2,3,4-tetrahydroisoquinolin-4-yl)piperidin-1-yl)propoxy)benzonitrile] | 5.19 | –
24 | CS(=O)(=O)CCC(C#N)(c1ccccc1)C1CCN(CCCOc2ccc(C#N)cc2)CC1 (stereo not shown) [compound 303, 4-(3-(4-(1-cyano-3-(methylsulfonyl)-1-phenylpropyl)piperidin-1-yl)propoxy)benzonitrile] | 4.12 | –
25 | N#Cc1ccc(OCCCN2CCC(C3(C4CCCS4(=O)=O)NCCc4ccccc43)CC2)cc1 (stereo not shown) [compound 304, 4-(3-(4-(1-(1,1-dioxidotetrahydrothiophen-2-yl)-1,2,3,4-tetrahydroisoquinolin-1-yl)piperidin-1-yl)propoxy)benzonitrile] | 4.97 | –
